Experimental data taken from patent publication US7049303B2, “Inhibition of viruses” (Medical Research Council, priority 2001, dated 2006).
Where two headings read alike, the source gives them in different places.

Key:
[1] = system: human T-lymphocytes (CEM/O cells); experiment: Toxicity: inhibition of proliferation of human T-lymphocytes (CEM/O cells); type: cell-based; settings: read-out: IC50 (50% inhibitory concentration), proliferation of CEM/O cells
Procedure: Following synthesis, the various compounds were tested in vitro for toxicity, by measuring the IC50 (i.e. the concentration which caused 50% inhibition) in respect of the inhibitory effects of the compounds on the proliferation of human T-lymphocytes (CEM/O cells).

HIV-1(IIIB) = experiment: Serial passage of HIV-1 infected CEM cell cultures with sub-toxic drug, cytopathic effect (giant cell formation); type: cell-based; settings: for percentage of cytopathic effect (giant cell formation), passage number 1: passage 1; for percentage of cytopathic effect (giant cell formation), passage number 1 / percentage of cytopathic effect (giant cell formation), passage number 2 / percentage of cytopathic effect (giant cell formation), passage number 3 / percentage of cytopathic effect (giant cell formation), passage number 4 / percentage of cytopathic effect (giant cell formation), passage number 5 / percentage of cytopathic effect (giant cell formation), passage number 6 / percentage of cytopathic effect (giant cell formation), passage number 7: subcultivation every 5 days; for percentage of cytopathic effect (giant cell formation), passage number 2: passage 2; for percentage of cytopathic effect (giant cell formation), passage number 3: passage 3; for percentage of cytopathic effect (giant cell formation), passage number 4: passage 4; for percentage of cytopathic effect (giant cell formation), passage number 5: passage 5; for percentage of cytopathic effect (giant cell formation), passage number 6: passage 6; for percentage of cytopathic effect (giant cell formation), passage number 7: passage 7; for antiviral activity (inhibition of HIV replication) in words: HIV-1 infected CEM cells, sub-toxic concentrations, up to 7 passages
Procedure: HIV-1 infected CEM cells were subcultured every 4–5 days in the presence of sub-toxic concentrations (in the range of 10–20% of their respective IC50 value) of the compounds under test. At each sub-culture, cell-free supernatant (10–20 μl) was transferred to fresh 1 ml cell cultures. At regular intervals the cultures were inspected microscopically to assess the extent of any cytopathic effect (giant cell formation). As an alternative, it is also possible to perform an immunoassay to quantify viral p24 production.
The preliminary results for up to 7 passages are shown below in Table 3.

`CONc1nc(N)nc2c1ncn2[C@@H]1O[C@H](CO)[C@@H](O)[C@H]1O` [JA31, 2-amino-6-methoxyamino-9-β-D-ribofuranosylpurine] was tested, and the IC50 ([1]; T-lymphocyte) was 377 ± 62 µM, the “percentage of cytopathic effect (giant cell formation), passage number 1” value (“percentage … passage number 1” below) (HIV-1(IIIB); 20 μM) was 100% and the “percentage of cytopathic effect (giant cell formation), passage number 2” value (shortened to “percentage … passage number 2”) (HIV-1(IIIB); 20 μM) was 100%. For the same compound, the “percentage of cytopathic effect (giant cell formation), passage number 3” value (“percentage … passage number 3” for short) (HIV-1(IIIB); 20 μM) was 3%, the “percentage of cytopathic effect (giant cell formation), passage number 4” value (“percentage … passage number 4” below) (HIV-1(IIIB); 20 μM) was 19% and the “percentage of cytopathic effect (giant cell formation), passage number 5” value (shortened to “percentage … passage number 5”) (HIV-1(IIIB); 20 μM) was 12%. The “percentage of cytopathic effect (giant cell formation), passage number 6” value (“percentage … passage number 6” for short) (HIV-1(IIIB); 20 μM) was 0%, the “percentage of cytopathic effect (giant cell formation), passage number 7” value (“percentage … passage number 7” below) (HIV-1(IIIB); 20 μM) was 0% and the “percentage … passage number 1” value (HIV-1(IIIB); 50 μM) was 100%. The “percentage … passage number 2” value (HIV-1(IIIB); 50 μM) was 100%, the “percentage … passage number 3” value (HIV-1(IIIB); 50 μM) was 0% and the “percentage … passage number 4” value (HIV-1(IIIB); 50 μM) was 0%. The “percentage … passage number 5” value (HIV-1(IIIB); 50 μM) was 0%, the “percentage … passage number 6” value (HIV-1(IIIB); 50 μM) was 0% and the “percentage … passage number 7” value (HIV-1(IIIB); 50 μM) was 0%. The “antiviral activity (inhibition of HIV replication) in words” value (HIV-1(IIIB)) was “effective at inhibiting the replication of RNA viruses” and the “antiviral activity (inhibition of HIV replication) in words” value (HIV-1(IIIB); listed as rK) was “active in reducing viral titer”.
For `CONc1ncnc2c1ncn2[C@@H]1O[C@H](CO)[C@@H](O)[C@H]1O` [JA26, N^6-methoxyadenosine], the IC50 ([1]; T-lymphocyte) was 44 ± 2 µM, the “percentage … passage number 1” value (HIV-1(IIIB); 4 μM) was 100% and the “percentage … passage number 2” value (HIV-1(IIIB); 4 μM) was 100%. The “percentage … passage number 3” value (HIV-1(IIIB); 4 μM) was 25%, the “percentage … passage number 4” value (HIV-1(IIIB); 4 μM) was 100% and the “percentage … passage number 5” value (HIV-1(IIIB); 4 μM) was 100%. The “percentage … passage number 6” value (HIV-1(IIIB); 4 μM) was 12%, the “percentage … passage number 7” value (HIV-1(IIIB); 4 μM) was 3% and the “percentage … passage number 1” value (HIV-1(IIIB); 10 μM) was 100%. The “percentage … passage number 2” value (HIV-1(IIIB); 10 μM) was 100%, the “percentage … passage number 3” value (HIV-1(IIIB); 10 μM) was 25% and the “percentage … passage number 4” value (HIV-1(IIIB); 10 μM) was 100%. The “percentage … passage number 5” value (HIV-1(IIIB); 10 μM) was 100%, the “percentage … passage number 6” value (HIV-1(IIIB); 10 μM) was 12% and the “percentage … passage number 7” value (HIV-1(IIIB); 10 μM) was 3%.
With `NNc1nc(N)nc2c1ncn2[C@@H]1O[C@H](CO)[C@@H](O)[C@H]1O` [JA24, N^6-amino-9-β-D-ribofuranosyl-2,6-diaminopurine] the IC50 [1] was 62 ± 6 µM, the “percentage … passage number 1” value (HIV-1(IIIB); 4 μM) was 100% and the “percentage … passage number 2” value (HIV-1(IIIB); 4 μM) was 100%. For the same compound, the “percentage … passage number 3” value (HIV-1(IIIB); 4 μM) was 19%, the “percentage … passage number 4” value (HIV-1(IIIB); 4 μM) was 100% and the “percentage … passage number 5” value (HIV-1(IIIB); 4 μM) was 100%. The “percentage … passage number 6” value (HIV-1(IIIB); 4 μM) was 100%, the “percentage … passage number 7” value (HIV-1(IIIB); 4 μM) was 12% and the “percentage … passage number 1” value (HIV-1(IIIB); 10 μM) was 100%. For the same compound, the “percentage … passage number 2” value (HIV-1(IIIB); 10 μM) was 100%, the “percentage … passage number 3” value (HIV-1(IIIB); 10 μM) was 25% and the “percentage … passage number 4” value (HIV-1(IIIB); 10 μM) was 100%. The “percentage … passage number 5” value (HIV-1(IIIB); 10 μM) was 100%, the “percentage … passage number 6” value (HIV-1(IIIB); 10 μM) was 100% and the “percentage … passage number 7” value (HIV-1(IIIB); 10 μM) was 25%.
For `CNc1nc(N)nc2c1ncn2[C@@H]1O[C@H](CO)[C@@H](O)[C@H]1O` [JA23, 2-amino-N^6-methyladenosine], the IC50 ([1]; T-lymphocyte) was 622 ± 8 µM, the “percentage … passage number 1” value (HIV-1(IIIB); 400 μM) was 100% and the “percentage … passage number 2” value (HIV-1(IIIB); 400 μM) was 100%. The “percentage … passage number 3” value (HIV-1(IIIB); 400 μM) was 12%, the “percentage … passage number 4” value (HIV-1(IIIB); 400 μM) was 25% and the “percentage … passage number 5” value (HIV-1(IIIB); 400 μM) was 3%. For the same compound, the “percentage … passage number 6” value (HIV-1(IIIB); 400 μM) was 0%, the “percentage … passage number 7” value (HIV-1(IIIB); 400 μM) was 0% and the “antiviral activity (inhibition of HIV replication) in words” value (HIV-1(IIIB)) was “moderately effective”.
In the case of `OC[C@H]1O[C@@H](n2cnc3c(NO)ncnc32)[C@H](O)[C@@H]1O` [JA28, N^6hydroxyadenosine], the IC50 ([1]; T-lymphocyte) is reported as 156 ± 15 µM, the “percentage … passage number 1” value (HIV-1(IIIB); 20 μM) is reported as 100% and the “percentage … passage number 2” value (HIV-1(IIIB); 20 μM) is reported as 100%. For the same compound, the “percentage … passage number 3” value (HIV-1(IIIB); 20 μM) was 19%, the “percentage … passage number 4” value (HIV-1(IIIB); 20 μM) was 100% and the “percentage … passage number 5” value (HIV-1(IIIB); 20 μM) was 100%. For the same compound, the “percentage … passage number 6” value (HIV-1(IIIB); 20 μM) was 100%, the “percentage … passage number 7” value (HIV-1(IIIB); 20 μM) was 100% and the “percentage … passage number 1” value (HIV-1(IIIB); 40 μM) was 100%. The “percentage … passage number 2” value (HIV-1(IIIB); 40 μM) was 100%, the “percentage … passage number 3” value (HIV-1(IIIB); 40 μM) was 50% and the “percentage … passage number 4” value (HIV-1(IIIB); 40 μM) was 100%. For the same compound, the “percentage … passage number 5” value (HIV-1(IIIB); 40 μM) was 100%, the “percentage … passage number 6” value (HIV-1(IIIB); 40 μM) was 75% and the “percentage … passage number 7” value (HIV-1(IIIB); 40 μM) was 6%.
`NNc1ncnc2c1ncn2[C@@H]1O[C@H](CO)[C@@H](O)[C@H]1O` [JA25, N^6-aminoadenosine] was tested, and the IC50 ([1]; T-lymphocyte) was 12 ± 3 µM, the “percentage … passage number 1” value (HIV-1(IIIB); 0.8 μM) was 100% and the “percentage … passage number 2” value (HIV-1(IIIB); 0.8 μM) was 100%. For the same compound, the “percentage … passage number 3” value (HIV-1(IIIB); 0.8 μM) was 87%, the “percentage … passage number 4” value (HIV-1(IIIB); 0.8 μM) was 100% and the “percentage … passage number 5” value (HIV-1(IIIB); 0.8 μM) was 100%. For the same compound, the “percentage … passage number 6” value (HIV-1(IIIB); 0.8 μM) was 100%, the “percentage … passage number 7” value (HIV-1(IIIB); 0.8 μM) was 100% and the “percentage … passage number 1” value (HIV-1(IIIB); 2 μM) was 100%. For the same compound, the “percentage … passage number 2” value (HIV-1(IIIB); 2 μM) was 100%, the “percentage … passage number 3” value (HIV-1(IIIB); 2 μM) was 100% and the “percentage … passage number 4” value (HIV-1(IIIB); 2 μM) was 100%. The “percentage … passage number 5” value (HIV-1(IIIB); 2 μM) was 100%, the “percentage … passage number 6” value (HIV-1(IIIB); 2 μM) was 100% and the “percentage … passage number 7” value (HIV-1(IIIB); 2 μM) was 100%.
`CN(N)c1ncnc2c1ncn2[C@@H]1O[C@H](CO)[C@@H](O)[C@H]1O` [JA27, N^6-amino-N^6-methyladenosine] was tested, and the IC50 ([1]; T-lymphocyte) was 17 ± 2 µM, the “percentage … passage number 1” value (HIV-1(IIIB); 4 μM) was 100% and the “percentage … passage number 2” value (HIV-1(IIIB); 4 μM) was 100%. The “percentage … passage number 3” value (HIV-1(IIIB); 4 μM) was 6%, the “percentage … passage number 4” value (HIV-1(IIIB); 4 μM) was 25% and the “percentage … passage number 5” value (HIV-1(IIIB); 4 μM) was 25%. For the same compound, the “percentage … passage number 6” value (HIV-1(IIIB); 4 μM) was 0%, the “percentage … passage number 7” value (HIV-1(IIIB); 4 μM) was 0% and the “antiviral activity (inhibition of HIV replication) in words” value (HIV-1(IIIB)) was “moderately effective”.
For `O=c1nc(NO)ccn1[C@@H]1O[C@H](CO)[C@@H](O)[C@H]1O` [JA29, N^4-hydroxycytidine, reference compound], the IC50 ([1]; T-lymphocyte) was 16 ± 1 µM, the “percentage … passage number 1” value (HIV-1(IIIB); 0.8 μM) was 100% and the “percentage … passage number 2” value (HIV-1(IIIB); 0.8 μM) was 100%. For the same compound, the “percentage … passage number 3” value (HIV-1(IIIB); 0.8 μM) was 12%, the “percentage … passage number 4” value (HIV-1(IIIB); 0.8 μM) was 100% and the “percentage … passage number 5” value (HIV-1(IIIB); 0.8 μM) was 100%. The “percentage … passage number 6” value (HIV-1(IIIB); 0.8 μM) was 100%, the “percentage … passage number 7” value (HIV-1(IIIB); 0.8 μM) was 100% and the “percentage … passage number 1” value (HIV-1(IIIB); 2 μM) was 100%. For the same compound, the “percentage … passage number 2” value (HIV-1(IIIB); 2 μM) was 100%, the “percentage … passage number 3” value (HIV-1(IIIB); 2 μM) was 25% and the “percentage … passage number 4” value (HIV-1(IIIB); 2 μM) was 100%. For the same compound, the “percentage … passage number 5” value (HIV-1(IIIB); 2 μM) was 100%, the “percentage … passage number 6” value (HIV-1(IIIB); 2 μM) was 100% and the “percentage … passage number 7” value (HIV-1(IIIB); 2 μM) was 100%. The “antiviral activity (inhibition of HIV replication) in words” value (HIV-1(IIIB)) was “does not demonstrate any antiviral activity”.
With `O=C1NC2=NOCCC2=CN1[C@@H]1O[C@H](CO)[C@@H](O)[C@H]1O` [JA22, 6-(β-D-ribofuranosyl)-3,4-dihydro-8H-pyrimido[4,5-c][1,2] oxazin-7-one] the IC50 ([1]; T-lymphocyte) was 698 ± 11 µM, the “percentage … passage number 1” value (HIV-1(IIIB); 400 μM) was 100% and the “percentage … passage number 2” value (HIV-1(IIIB); 400 μM) was 100%. The “percentage … passage number 3” value (HIV-1(IIIB); 400 μM) was 100%, the “percentage … passage number 4” value (HIV-1(IIIB); 400 μM) was 100% and the “percentage … passage number 5” value (HIV-1(IIIB); 400 μM) was 100%. The “percentage … passage number 6” value (HIV-1(IIIB); 400 μM) was 100% and the “percentage … passage number 7” value (HIV-1(IIIB); 400 μM) was 100%.
